Data set [1] has as its system genotype 1a (strain TN) full-length virus. Briefly: Antiviral treatment of HCV infected Huh7.5 cultures, high throughput assay, virus TN. The format is cell-based, hepatitis C virus. To be noted: for inhibition of virus (concentration-response): TN(1a) in Huh7.5 cells, non-cytotoxic drug concentrations; for EC50 / sensitivity of virus, stated in words: TN(1a), numbers only in FIG. 11. As to the method: (§1) HCV infected cultures were treated with NS3 Protease, NS5A, and NS5B polymerase inhibitors (purchased from Acme Bioscience) in a high throughput assay. Immunostaining of fixed 96-well plates was performed using anti-core C7- and anti-NS5A 9E10 at dilutions 1/450 and 1/1000, respectively.
(§2) Concentration-response curves and EC50 values were calculated. The non-cytotoxic dose ranges for all drugs were determined with a cytotoxicity assay (CellTiter 96 AQueous One Solution Cell Proliferation Assay, Promega).
(§3) HCV genetic divergence influences the sensitivity to lead direct acting antivirals. Our developed full-length culture systems permit the study of frontline HCV DAAs in the context of the complete HCV life cycle. Thus, we determined the efficacy of DAAs targeting different viral proteins against genotype 1a (strain TN), 2a (strain J6 and recombinant J6core-NS2/JFH18, referred to as JFH1, since it has the JFH1 protease, NS5A and NS5B), and 2b (strains DH8, J8, and DH10). For 2b viruses we used 3rd passage DH8_LSG, 5th passage J8cc, and 3rd passage DH10_LSG (FIGS. 6-10).

In data set [2] the test system is genotype 2b strain J8 (5th passage J8cc). Briefly: Antiviral treatment of HCV infected Huh7.5 cultures, high throughput assay, virus J8. The class given is cell-based, hepatitis C virus. The conditions noted are these: for inhibition of virus (concentration-response): J8(2b) in Huh7.5 cells, non-cytotoxic drug concentrations. On the procedure: as §1, §2, §3
The subject of data set [3] is genotype 2b strain DH10 (3rd passage DH10_LSG). The experiment in a line: Antiviral treatment of HCV infected Huh7.5 cultures, high throughput assay, virus DH10. To be noted: DH10(2b) in Huh7.5 cells; non-cytotoxic drug concentrations. The format is cell-based, hepatitis C virus. On the procedure:
as §1, §2, §3

Data set [4] relates to genotype 2b strain DH8 (3rd passage DH8_LSG). Briefly: Antiviral treatment of HCV infected Huh7.5 cultures, high throughput assay, virus DH8. The class given is cell-based, hepatitis C virus. The conditions noted are these: DH8(2b) in Huh7.5 cells; non-cytotoxic drug concentrations. On the procedure: as §1, §2, §3
The test system of data set [5] is 2a recombinant J6core-NS2/JFH1, referred to as JFH1. Briefly: Antiviral treatment of HCV infected Huh7.5 cultures, high throughput assay, virus JFH1. The class given is cell-based, hepatitis C virus. To be noted: for inhibition of virus (concentration-response): JFH1(2a) in Huh7.5 cells, non-cytotoxic drug concentrations. On the procedure:
as §1, §2, §3

Data set [6] relates to genotype 2a (strain J6) full-length virus. The experiment in a line: Antiviral treatment of HCV infected Huh7.5 cultures, high throughput assay, virus J6. The class given is cell-based, hepatitis C virus. To be noted: for inhibition of virus (concentration-response): J6(2a) in Huh7.5 cells, non-cytotoxic drug concentrations; for EC50 / sensitivity of virus, stated in words: J6(2a), numbers only in FIG. 11. As to the method: as §1, §2, §3

Data set [7] concerns Huh7.5 cells. The experiment in a line: Transfection of Huh7.5 cells with RNA transcripts of full-length HCV recombinants. The format is cell-based. The conditions noted are these: for HCV positive cells detected / HCV infectivity titers: after transfection; for spread of infection (≥80% HCV-antigen positive cells): day after transfection. On the procedure: (§4) Transfection and passage of recombinant full-length HCV in Huh7.5 cells. Transfections with RNA transcripts were performed as reported. For viral passage, cell free supernatants were incubated with […] Huh7.5 cells overnight. Cultures were split every 2-3 days and progression of infection was monitored by immunostaining on cells seeded in slides and co-stained with primary antibodies anti-core C7-50 (Enzo Life Sciences) and anti-NS5A 9E108, at dilution 1/25010. Infectivity titers expressed as Log 10 Focus Forming Units (FFU)/mL were determined as described. To improve staining, we used a mixture of anti-core C7- and anti-NS5A 9E10 at dilutions 1/450 and 1/1000, respectively. HCV RNA titers (IU/mL) on passage supernatants with peak infectivity titers were determined as previously described.

Data set [8] has as its system Huh7.5 cells. Briefly: Viral passage of recombinant full-length HCV to naive Huh7.5 cells. The format is cell-based. As to the method: as §4

“Also recorded” adds a separate entry of the source.

Turning to `Cn1c(C2(NC(=O)c3ccc4c(C5CCCC5)c(-c5ncc(Br)cn5)n(C)c4c3)CCC2)nc2ccc(/C=C/C(=O)O)cc21` [BI207127], the “inhibition of virus (concentration-response)” value (shortened to “inhibition of virus”) in data set [1], in data set [2], in data set [3], in data set [4], in data set [5] and in data set [6] was “inhibit all viruses in a dose dependent manner” each time. In addition, the “EC50 / sensitivity of virus, stated in words” value (shortened to “EC50 / sensitivity of virus”) in data set [1] is recorded as “most sensitive virus”.
Regarding `CCc1cc(CC[C@]2(C3CCCC3)CC(O)=C(Cc3nc4nc(C)cc(C)n4n3)C(=O)O2)cc(CC)n1` [Filibuvir], the “inhibition of virus” value in data set [1] was “inhibited TN(1a) in a dose dependent manner”; in data set [2] it was “no or very limited inhibition; also recorded: not inhibited”; in data set [3] it was “no or very limited inhibition; also recorded: not inhibited”; in data set [4], “no or very limited inhibition; also recorded: not inhibited”; in data set [5] it was “no or very limited inhibition; also recorded: not inhibited”; in data set [6] it was “no or very limited inhibition; also recorded: not inhibited”.
Turning to `C=C[C@@H]1C[C@]1(NC(=O)[C@@H]1C[C@@H]2CN1C(=O)[C@H](C(C)(C)C)NC(=O)O[C@@H]1C[C@H]1CCCCCc1nc3ccc(OC)cc3nc1O2)C(=O)NS(=O)(=O)C1CC1` [MK-5172], the “EC50 / sensitivity of virus” value was “most sensitive viruses” in data set [1] and “most sensitive viruses” in data set [5] (JFH1(2a), numbers only in FIG. 11).
With `CC(C)C(=O)OC[C@H]1O[C@@H](n2ccc(N)nc2=O)[C@](C)(F)[C@@H]1OC(=O)C(C)C` [Mericitabine], the “inhibition of virus” value in data set [1] was “inhibited 1a, 2a, and 2b viruses in a dose-dependent manner”; in data set [2], “inhibited 1a, 2a, and 2b viruses in a dose-dependent manner”; in data set [3], “inhibited 1a, 2a, and 2b viruses in a dose-dependent manner”; in data set [4], “inhibited 1a, 2a, and 2b viruses in a dose-dependent manner”; in data set [5], “inhibited 1a, 2a, and 2b viruses in a dose-dependent manner”; in data set [6], “inhibited 1a, 2a, and 2b viruses in a dose-dependent manner”. Besides, the “EC50 / sensitivity of virus” value in data set [6] is recorded as “most sensitive virus”.
`COc1ccc2c(O[C@@H]3C[C@H]4C(=O)N[C@]5(C(=O)NS(=O)(=O)C6CC6)C[C@H]5/C=C\CCCCN(C)C(=O)[C@@H]4C3)cc(-c3nc(C(C)C)cs3)nc2c1C` [Simeprevir]: in data set [2] (J8(2b), numbers only in FIG. 11), the “EC50 / sensitivity of virus” value is recorded as “lower EC50”.
Regarding `CC(C)OC(=O)[C@H](C)N[P@](=O)(OC[C@H]1O[C@@H](n2ccc(=O)[nH]c2=O)[C@](C)(F)[C@@H]1O)Oc1ccccc1` [Sofosbuvir], the “inhibition of virus” value in data set [1] is “inhibited 1a, 2a, and 2b viruses in a dose-dependent manner”; in data set [2] it was “inhibited 1a, 2a, and 2b viruses in a dose-dependent manner”; in data set [3], “inhibited 1a, 2a, and 2b viruses in a dose-dependent manner”; in data set [4] it was “inhibited 1a, 2a, and 2b viruses in a dose-dependent manner”; in data set [5], “inhibited 1a, 2a, and 2b viruses in a dose-dependent manner”; in data set [6] it was “inhibited 1a, 2a, and 2b viruses in a dose-dependent manner”. Moreover, in data set [6], the “EC50 / sensitivity of virus” value is “most sensitive virus”.
As to `CC(C)(C)C#Cc1cc(N(C(=O)[C@H]2CC[C@H](C)CC2)[C@H]2CC[C@H](O)CC2)c(C(=O)O)s1` [VX-222], the “inhibition of virus” value in data set [1] was “inhibited TN(1a) in a dose dependent manner”; in data set [2] it was “no or very limited inhibition; also recorded: not inhibited”; in data set [3] it was “no or very limited inhibition; also recorded: not inhibited”; in data set [4] it was “no or very limited inhibition; also recorded: not inhibited”; in data set [5], “no or very limited inhibition; also recorded: not inhibited”; in data set [6] it was “no or very limited inhibition; also recorded: not inhibited”. The “EC50 / sensitivity of virus” value in data set [1] is listed as “most potent inhibitor”.
“DH8CF: full-length HCV genotype 2b consensus clone of strain DH8, SEQ ID NO 1, KF420335”: the “HCV positive cells detected” value with Huh7.5 cells [7] is on record as “No HCV positive cells were detected”.
With “DH8_LSG/L758S/A1790T/V1951A/I2439T: DH8 full-length recombinant named DH8cc, SEQ ID NO 8, KF420336”, the values for the HCV infectivity titers in the data set on Huh7.5 cells [8] (1st passage), in the data set on Huh7.5 cells [8] (2nd passage) and in the data set on Huh7.5 cells [7] were 4.4 Log 10 FFU/mL, 4.3 Log 10 FFU/mL and 4.1 Log 10 FFU/mL, respectively. The “spread of infection (≥80% HCV-antigen positive cells)” value with Huh7.5 cells [7] is 6 days.
With “DH8_LSG/L884P/V1951A/I2440T/L3021F: efficient full-length infectious DH8 recombinant, SEQ ID NO 7, KF420337”, the HCV infectivity titers in the data set with Huh7.5 cells [8] (2nd passage) came out at 3.9 Log 10 FFU/mL. For the same compound, in the data set with Huh7.5 cells [7], the HCV infectivity titers came to 3.8 Log 10 FFU/mL and the “spread of infection (≥80% HCV-antigen positive cells)” value was found to be 6 days.
Take “DH8_LSG: DH8CF containing LSG mutations F1468L/A1676S/D3001G, SEQ ID NO:2”: the HCV infectivity titers in the data set with Huh7.5 cells [8] (1st passage) is on record as 3.1-4.2 Log 10 FFU/mL. Moreover, the spread of infection in the data set with Huh7.5 cells [8] (1st viral passage) lay within 5 to 8 days. In the data set with Huh7.5 cells [8] (3rd passage of transfection 1 culture A), the HCV infectivity titers is 4.7 Log 10 FFU/mL. For the same compound, in the data set on Huh7.5 cells [7], the HCV infectivity titers is 3.1-3.9 Log 10 FFU/mL, the “HCV positive cells detected” value was at least 1 days and the “spread of infection (≥80% HCV-antigen positive cells)” value is 36 to 53 days.
With “J8_LSG/L758S/A1790T/V1951A/I2440T: efficient J8 virus with authentic NS3 protease, SEQ ID NO 15, KF420339”, in the data set on Huh7.5 cells [7], the HCV infectivity titers worked out at 3.8 Log 10 FFU/mL and the “spread of infection (≥80% HCV-antigen positive cells)” value amounted to 5 days.
Turning to “J8cc/M292L/L612M/G1154A/N1217Y/Q1763R/I2440T: J8 cell culture, high titer recombinant, SEQ ID NO 14, KF420338”, in the data set on Huh7.5 cells [7], the HCV infectivity titers was found to be 4.7 Log 10 FFU/mL and the “spread of infection (≥80% HCV-antigen positive cells)” value is 3 days.

The values above are taken from US10106782B2, “High-titer HCV full-length genotype 2B infectious cell culture systems and applications thereof” (Hvidovre Hospital, priority 2013, dated 2018).
